Publication PMC9001717, “Tyrosine 121 moves revealing a ligandable pocket that couples catalysis to ATP-binding in serine racemase” (Communications Biology, 2022)
Like-named read-outs stand apart in the source and are kept apart here.

Legend:
[1] = system: slime mould (D. discoideum) SR; design: method as in ref 56 (a number printed in a supplementary file, which may have a reference list of its own: not looked up in the article's list); settings: ref 56; cited from earlier work
human SR (hSR) [2] = biological target: T1, human SR (hSR) (Homo sapiens, UniProt Q9GZT4, C2D/C6D); test: Thermal denaturation assay; format: binding
T1 construct: (His)6 (C); made in house; host or cells: E. coli (BL21-CodonPlus (DE3)-RIL for the mutants; the wild type is only 'as described[33]')
T1 sequence (Q9GZT4 1-340 C2D/C6D): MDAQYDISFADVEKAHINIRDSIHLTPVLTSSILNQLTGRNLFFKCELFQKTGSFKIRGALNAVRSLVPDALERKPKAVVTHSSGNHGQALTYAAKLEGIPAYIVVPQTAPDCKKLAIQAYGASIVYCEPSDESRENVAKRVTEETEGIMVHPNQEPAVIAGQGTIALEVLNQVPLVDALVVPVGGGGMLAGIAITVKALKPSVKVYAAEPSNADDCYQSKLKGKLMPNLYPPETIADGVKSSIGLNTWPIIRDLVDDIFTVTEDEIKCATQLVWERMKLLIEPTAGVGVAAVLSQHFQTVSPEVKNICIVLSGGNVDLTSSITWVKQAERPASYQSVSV
Protocol: The melting temperature (Tm) of SR was determined in the presence and absence of malonate (disodium salt) and 1 mM ATP (disodium salt, Fisher) in a buffer containing 100 mM CHES pH 8.5, 1 mM MgCl2, and 10 µM PLP. The reaction mixture was prepared in 96-well plates containing final concentrations of 2 µM SR, 5X SYPRO Orange dye (from 5000X concentrate, ThermoFisher), and a 6-point 1:3 dilution series of malonate (0–1 mM). Each condition was assessed with and without 1 mM ATP in the buffer. Thermal denaturation analysis was performed in triplicate by transferring 10 µL reaction mixture to 384-well plates for use in a BioRad CFX384 Touch Real-Time PCR Detection System. Programme: 10 min hold at 25 °C, plate read, increase by increments of 0.5 °C up to 95 °C; each step accompanied by a 15 s hold and plate read. Data were analysed using GraphPad Prism.

hSR = system: hSR; design: method as in PMID 25331425; settings: cited from earlier work
Yeast SR = system: Yeast SR; design: method as in ref 4 (a number printed in a supplementary file, which may have a reference list of its own: not looked up in the article's list); settings: ref 4; cited from earlier work
human SR = system: human SR; design: method as in ref 57,58 (a number printed in a supplementary file, which may have a reference list of its own: not looked up in the article's list); settings: upon addition of ATP; cited from earlier work
[3] = biological target: T2, human serine racemase (hSR) WT (Homo sapiens, UniProt Q9GZT4, C2D/C6D); test: L- to D-Ser racemisation coupled luminescence assay, wild-type hSR; format: biochemical; settings: malonate used as control compound
T2 construct: (His)6 (C); made in house; host or cells: E. coli (BL21-CodonPlus (DE3)-RIL for the mutants; the wild type is only 'as described[33]')
T2 sequence (Q9GZT4 1-340 C2D/C6D): T1 sequence (Q9GZT4 1-340 C2D/C6D)
Protocol: The ability of compounds to inhibit the L to D-Ser racemisation activity of hSR was measured in a coupled assay. In the assay, hSR converts L-Ser to D-Ser. The D-Ser is then converted into pyruvate, ammonia and hydrogen peroxide using D-amino acid oxidase. Next, the hydrogen peroxide reacts with luminol in the presence of horseradish peroxidase, producing luminescent by-product. In the assay malonate was used as a control compound and gave 100% inhibition – results for XChem compounds are shown in Supplementary Table 4 and in supplementary Fig. 12. The activity of the wild-type and the three Y121 mutants, Y121F, Y121A and Y121G was measured at six ATP concentrations (1 mM, 0.5 mM, 0.25 mM, 0.125 mM, 0.062 mM and 0.031 mM) as shown in supplementary Fig. 11.
The inhibition of hSR activity was measured using a luminescence assay in a 384 well plate (flat bottom white, Corning). Initially, each well contained 100 mM Tris pH 8.5, 0.05% Pluronic f-127 (VWR), 1 mM MgCl2, 1 mM ATP (disodium salt, Fisher), 10 µM PLP, 0.3 nM hSR, 2 mM L-serine and compound at 16.67 mM to 0.0077 mM (see supplementary Fig. 12) and had 16.7% DMSO concentration. The plate was incubated at RT with shaking for 30 min. After this, the reaction was stopped using a detection mix. The final well concentration was 100 mM Tris pH 8.5, 0.05% Pluronic f-127 (VWR), 1 mM EDTA (Fisher), 0.25 U/mL horseradish peroxidase, 0.5 U/mL D-amino acid oxidase and 25 µM Luminol (Insight Biotechnology) and 8.4% DMSO. The plate was left to incubate covered and shaking for 10 min. The plate was then read using a PHERAstar (BMG) plate reader. For the ATP dependant activity data, the method was kept the same, except for varying the concentration of ATP.
The relative light units read (x) on the PHERAstar were converted into percentage inhibition (PI) using the equation: PI=100x[1−(x−Min)/(Max−Min)] where min is negative control (100% inhibition) and max is the positive control (no inhibition). The IC50s were calculated with GraphPad (Prism 8.3.1, Graphpad Software, San Diego CA).

human SR (hSR) [4] = biological target: T1, human SR (hSR); design: method as in PMID 18812225; settings: read-out: inhibition constant (Ki); cited from earlier work
mouse SR = system: mouse SR; design: method as in PMID 28533113; settings: cited from earlier work
SR [5] = settings: cited from earlier work
SR [6] = system: SR; design: method as in supplementary refs 2, 11-32; settings: literature summary; ref supplementary refs 2, 11-32; cited from earlier work
[7] = 1 mM of the additive alone, reference Tm 47.3 °C

SMILES	increase of elimination [1]	increase of racemisation [1]	ΔTm (human SR (hSR) [2]; [7])	increase of hSR affinity for malonate (hSR; effect of ATP on malonate binding to the catalytic site)	increase of both reactions (racemisation and elimination) (Yeast SR)	increase of D-serine elimination (human SR)	increase of L-serine elimination (human SR)	increase of L-serine racemisation (human SR)	inhibition by control compound [3]	ΔTm (human SR (hSR) [2]; 1 mM ATP and 1 mM malonate together)	malonate concentration required for the cooperative stabilising effect of ATP and malonate (human SR (hSR) [2]; with 1 mM ATP)	Ki (human SR (hSR) [4])	IC50 (mouse SR)	IC50 (SR [5]; ref 48)	IC50 (SR [5]; ref 49)	Ki (SR [5]; review of SR inhibitors)	increase of the affinity of hSR for ATP (hSR; allosteric effect of malonate on the ATP site)	Inhibition mode (SR [6])
Nc1ncnc2c1ncn2[C@@H]1O[C@H](COP(=O)(O)OP(=O)([O-])OP(=O)([O-])O)[C@@H](O)[C@H]1O.[Mg+2] [Mg-ATP]	6 fold	2.5 fold																
Nc1ncnc2c1ncn2[C@@H]1O[C@H](COP(=O)(O)OP(=O)(O)OP(=O)(O)O)[C@@H](O)[C@H]1O [ATP, Adenosine triphosphate]			−1.3 °C	at least 9 fold	less than 2 fold	4 fold	31 fold	~2 fold										
O=C(O)CC(=O)O [malonate]			+1.2 °C						100%	+3.7 °C	> 0.1 mM	33 µM	770 µM	67 µM	449 µM	< 100 µM	100 fold	Competitive
